The record followed here is patent US7084154B2, “2-(aminomethyl) arylamide analgesics” (Pharmacopeia Drug Disclovery, Inc., priority 2003, dated 2006).

SMILES strings stand for the structures.

In this test the test system is male mice (strain ICR). The experiment in a line: Formalin paw licking test in mice. The class given is in vivo. The note with it: 10 mg/kg i.v. in saline, 15 minutes before sub-plantar 3% formalin; compared to vehicle control. As to the method:
The activity of the compounds in the in vitro screen was confirmed in vivo. Compound 103 was dissolved in saline and administrated to male mice (strain ICR) at 10 mg/kg i.v. in the tail vein. After 15 minutes, a 3% solution of formalin was administered sub-plantar and the time spent licking the paw was monitored in 5 minute segments over a 45 minute period. The experiment was conducted on 1–6 mice per group and compared to a control set (5 mice), which were given the vehicle alone prior to formalin injection. The first phase response was reduced by approximately 50%. The person of skill in the art would accept this test as predictive of therapeutic utility for analgesia.

Regarding `CC1c2cc(O)ccc2CCN1Cc1ccccc1C(=O)NCC/C=C/c1ccccc1` (stereo not shown) [Compound 103, 2-(7-hydroxy-1-methyl-3,4-dihydro-1H-isoquinolin-2-ylmethyl)-N-(4-phenyl-but-3-enyl)-benzamide], the “reduction of first phase response (time spent licking the paw)” value is listed as “approximately 50%”.
